Source: PubChem BioAssay AID256 (DTP/NCI, 2004)
Several values for one entry are separate records, joined by “and”; a condition that tells them apart may be missing. Equal entries are not always repeated. Toxic doses and inconclusive results are not listed.

System: CD2F1 mice, L1210 leukemia ip, survival T/C
Assay: NCI In Vivo Anticancer Drug Screen. Data for tumor model L1210 Leukemia (intraperitoneal) in CD2F1 (CDF1) mice
Settings: higher = longer survival
Procedure, shortened: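 Each value reflects a quotient of treated over vehicle control outcomes in mice with a transplanted tumor.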

[1] = endpoint: mean survival time, dose: 100.0 mg/kg/injection, schedule: Q01DX009 (ip), vehicle: saline with Tween-80
[2] = endpoint: mean survival time, dose: 100.0 mg/kg/injection, schedule: Q04DX003 (ip), vehicle: saline with Tween-80
[3] = endpoint: mean survival time, dose: 200.0 mg/kg/injection, schedule: Q01DX009 (ip), vehicle: saline with Tween-80
[4] = endpoint: mean survival time, dose: 200.0 mg/kg/injection, schedule: Q04DX003 (ip), vehicle: saline with Tween-80
[5] = endpoint: mean survival time, dose: 400.0 mg/kg/injection, schedule: Q04DX003 (ip), vehicle: saline with Tween-80
[6] = endpoint: mean survival time, dose: 100.0 mg/kg/injection, schedule: Q04DX003 (ip), vehicle: Klucel (hydroxypropylcellulose) (HPC)
[7] = endpoint: mean survival time, dose: 200.0 mg/kg/injection, schedule: Q04DX003 (ip), vehicle: Klucel (hydroxypropylcellulose) (HPC)
[8] = endpoint: mean survival time, dose: 12.5 mg/kg/injection, schedule: Q01DX009 (ip), vehicle: Klucel (hydroxypropylcellulose) (HPC)
[9] = endpoint: mean survival time, dose: 25.0 mg/kg/injection, schedule: Q01DX009 (ip), vehicle: Klucel (hydroxypropylcellulose) (HPC)
[10] = endpoint: mean survival time, dose: 50.0 mg/kg/injection, schedule: Q01DX009 (ip), vehicle: Klucel (hydroxypropylcellulose) (HPC)
[11] = endpoint: mean survival time, dose: 200.0 mg/kg/injection, schedule: Q01DX001 (ip), vehicle: saline with Tween-80
[12] = endpoint: mean survival time, dose: 400.0 mg/kg/injection, schedule: Q01DX001 (ip), vehicle: saline with Tween-80

C=CC(C)(C)n1cc(C2=C(O)C(=O)C(c3cn(C(C)(C)C=C)c4ccccc34)=C(O)C2=O)c2ccccc21
T/C (endpoint: mean survival time, dose: 2.5 mg/kg/injection, schedule: Q01DX009 (ip), vehicle: Klucel (hydroxypropylcellulose) (HPC)): 97 % of control | T/C (endpoint: mean survival time, dose: 2.5 mg/kg/injection, schedule: Q01DX009 (ip), vehicle: carboxymethylcellulose (CMC)): 100 % of control | T/C (endpoint: mean survival time, dose: 5.0 mg/kg/injection, schedule: Q01DX009 (ip), vehicle: Klucel (hydroxypropylcellulose) (HPC)): 93 % of control | T/C (endpoint: mean survival time, dose: 5.0 mg/kg/injection, schedule: Q01DX009 (ip), vehicle: carboxymethylcellulose (CMC)): 100 % of control | T/C (endpoint: mean survival time, dose: 9.0 mg/kg/injection, schedule: Q01DX009 (ip), vehicle: carboxymethylcellulose (CMC)): 96 % of control | T/C (endpoint: mean survival time, dose: 10.0 mg/kg/injection, schedule: Q01DX009 (ip), vehicle: Klucel (hydroxypropylcellulose) (HPC)): 91 % of control | T/C (endpoint: mean survival time, dose: 10.0 mg/kg/injection, schedule: Q01DX009 (ip), vehicle: carboxymethylcellulose (CMC)): 98 % of control | T/C (endpoint: mean survival time, dose: 18.0 mg/kg/injection, schedule: Q01DX009 (ip), vehicle: carboxymethylcellulose (CMC)): 98 % of control | T/C (endpoint: mean survival time, dose: 20.0 mg/kg/injection, schedule: Q01DX009 (ip), vehicle: Klucel (hydroxypropylcellulose) (HPC)): 93 % of control | T/C (endpoint: mean survival time, dose: 20.0 mg/kg/injection, schedule: Q01DX009 (ip), vehicle: carboxymethylcellulose (CMC)): 98 % of control | T/C (endpoint: mean survival time, dose: 26.0 mg/kg/injection, schedule: Q01DX009 (ip), vehicle: carboxymethylcellulose (CMC)): 94 % of control | T/C (endpoint: mean survival time, dose: 40.0 mg/kg/injection, schedule: Q01DX009 (ip), vehicle: Klucel (hydroxypropylcellulose) (HPC)): 93 % of control | T/C (endpoint: mean survival time, dose: 40.0 mg/kg/injection, schedule: Q01DX009 (ip), vehicle: carboxymethylcellulose (CMC)): 93 % of control | T/C (endpoint: mean survival time, dose: 60.0 mg/kg/injection, schedule: Q01DX009 (ip), vehicle: carboxymethylcellulose (CMC)): 100 % of control | T/C (endpoint: median survival time, dose: 5.0 mg/kg/injection, schedule: Q01DX009 (ip), vehicle: Klucel (hydroxypropylcellulose) (HPC)): 101 % of control | T/C (endpoint: median survival time, dose: 10.0 mg/kg/injection, schedule: Q01DX009 (ip), vehicle: Klucel (hydroxypropylcellulose) (HPC)): 100 % of control and 102 % of control | T/C (endpoint: median survival time, dose: 20.0 mg/kg/injection, schedule: Q01DX009 (ip), vehicle: Klucel (hydroxypropylcellulose) (HPC)): 97 % of control and 100 % of control | T/C (endpoint: median survival time, dose: 40.0 mg/kg/injection, schedule: Q01DX009 (ip), vehicle: Klucel (hydroxypropylcellulose) (HPC)): 115 % of control and 109 % of control

O=C(NS(=O)(=O)c1ccc(Cl)cc1)OCCCl
T/C [1]: 96 % of control | T/C [2]: 97 % of control | T/C [3]: 96 % of control | T/C [4]: 97 % of control | T/C [5]: 102 % of control

Cc1ccc(C2OC23CC(C)(C)c2ccccc2C3=O)cc1 (configuration not stated)
T/C (endpoint: mean survival time, dose: 100.0 mg/kg/injection, schedule: Q01DX009 (ip), vehicle: other): 100 % of control | T/C (endpoint: mean survival time, dose: 200.0 mg/kg/injection, schedule: Q01DX009 (ip), vehicle: other): 96 % of control | T/C (endpoint: mean survival time, dose: 400.0 mg/kg/injection, schedule: Q01DX009 (ip), vehicle: other): 107 % of control

CC(=O)Nc1nc(C)c(S(=O)(=O)O)s1
T/C (endpoint: mean survival time, dose: 75.0 mg/kg/injection, schedule: Q01DX001 (ip), vehicle: saline): 101 % of control | T/C (endpoint: mean survival time, dose: 150.0 mg/kg/injection, schedule: Q01DX001 (ip), vehicle: saline): 93 % of control | T/C (endpoint: mean survival time, dose: 300.0 mg/kg/injection, schedule: Q01DX001 (ip), vehicle: saline): 90 % of control

COc1cc(NC(=O)Nc2ccccc2Cl)c(OC)cc1Cl
T/C (endpoint: mean survival time, dose: 25.0 mg/kg/injection, schedule: Q04DX002 (ip), vehicle: saline with Tween-80): 98 % of control | T/C (endpoint: mean survival time, dose: 50.0 mg/kg/injection, schedule: Q04DX002 (ip), vehicle: saline with Tween-80): 94 % of control | T/C (endpoint: mean survival time, dose: 100.0 mg/kg/injection, schedule: Q04DX002 (ip), vehicle: saline with Tween-80): 102 % of control

O=Cc1cc(Cl)c(O)c(Cl)c1
T/C [6]: 94 % of control | T/C [7]: 100 % of control

COc1cc(C=Nc2ccc(-c3nc(C)sc3C)cc2)ccc1N(CCCl)CCCl
T/C (endpoint: mean survival time, dose: 25.0 mg/kg/injection, schedule: Q01DX001 (ip), vehicle: carboxymethylcellulose (CMC)): 155 % of control | T/C (endpoint: mean survival time, dose: 50.0 mg/kg/injection, schedule: Q01DX001 (ip), vehicle: carboxymethylcellulose (CMC)): 97 % of control

CC(=O)Nc1ccc(S(=O)(=O)N=C(N)N)cc1
T/C (endpoint: mean survival time, dose: 75.0 mg/kg/injection, schedule: Q04DX002 (ip), vehicle: saline): 114 % of control | T/C (endpoint: mean survival time, dose: 150.0 mg/kg/injection, schedule: Q04DX002 (ip), vehicle: saline): 100 % of control | T/C (endpoint: mean survival time, dose: 300.0 mg/kg/injection, schedule: Q04DX002 (ip), vehicle: saline): 91 % of control

COc1ccc(-c2cc(-c3ccccc3)n[nH]2)cc1
T/C [2]: 93 % of control | T/C [4]: 97 % of control | T/C [5]: 93 % of control

O=C1NC(=O)C(=O)N1
T/C (endpoint: mean survival time, dose: 100.0 mg/kg/injection, schedule: Q01DX009 (ip), vehicle: saline): 94 % of control | T/C (endpoint: mean survival time, dose: 200.0 mg/kg/injection, schedule: Q01DX009 (ip), vehicle: saline): 105 % of control | T/C (endpoint: mean survival time, dose: 400.0 mg/kg/injection, schedule: Q01DX009 (ip), vehicle: saline): 108 % of control

Nc1ncnc2nc(SCc3ccccc3)[nH]c12
T/C [8]: 112 % of control | T/C [9]: 104 % of control | T/C [10]: 100 % of control | T/C (endpoint: mean survival time, dose: 100.0 mg/kg/injection, schedule: Q01DX001 (ip), vehicle: Klucel (hydroxypropylcellulose) (HPC)): 90 % of control

Cc1cc(C)c(O)c(C)c1C
T/C (endpoint: mean survival time, dose: 31.25 mg/kg/injection, schedule: Q01DX009 (ip), vehicle: saline): 100 % of control | T/C (endpoint: mean survival time, dose: 62.5 mg/kg/injection, schedule: Q01DX009 (ip), vehicle: saline): 91 % of control | T/C (endpoint: mean survival time, dose: 125.0 mg/kg/injection, schedule: Q01DX009 (ip), vehicle: saline): 95 % of control | T/C (endpoint: mean survival time, dose: 250.0 mg/kg/injection, schedule: Q01DX009 (ip), vehicle: saline): 93 % of control

CCOC(=O)c1cnc2c(cnn2CC)c1N1CCCCC1
T/C [6]: 89 % of control | T/C [7]: 97 % of control

CC(C)(CO)NC(=O)CC1CCCCC1
T/C (endpoint: mean survival time, dose: 100.0 mg/kg/injection, schedule: Q01DX001 (ip), vehicle: saline with Tween-80): 103 % of control | T/C [11]: 103 % of control | T/C [12]: 100 % of control

COc1ccc(OC)c(C2N(Cc3ccc(N(C)C)cc3)CCCN2Cc2ccc(N(C)C)cc2)c1
T/C [2]: 90 % of control | T/C [4]: 87 % of control

Cc1ccc(S(=O)(=O)N/N=C/C(Br)=C(/Br)C(=O)O)cc1
T/C (endpoint: mean survival time, dose: 3.12 mg/kg/injection, schedule: Q01DX009 (ip), vehicle: Klucel (hydroxypropylcellulose) (HPC)): 104 % of control | T/C (endpoint: mean survival time, dose: 6.25 mg/kg/injection, schedule: Q01DX009 (ip), vehicle: Klucel (hydroxypropylcellulose) (HPC)): 112 % of control | T/C [8]: 113 % of control | T/C [9]: 115 % of control and 105 % of control | T/C [10]: 113 % of control and 102 % of control | T/C (endpoint: mean survival time, dose: 100.0 mg/kg/injection, schedule: Q01DX009 (ip), vehicle: Klucel (hydroxypropylcellulose) (HPC)): 120 % of control and 108 % of control | T/C (endpoint: mean survival time, dose: 200.0 mg/kg/injection, schedule: Q01DX009 (ip), vehicle: Klucel (hydroxypropylcellulose) (HPC)): 104 % of control

Nc1nc(N)c2nc(-c3ccccc3Cl)c(-c3ccccc3Cl)nc2n1
T/C (endpoint: mean survival time, dose: 25.0 mg/kg/injection, schedule: Q04DX002 (ip), vehicle: Klucel (hydroxypropylcellulose) (HPC)): 91 % of control | T/C (endpoint: mean survival time, dose: 50.0 mg/kg/injection, schedule: Q04DX002 (ip), vehicle: Klucel (hydroxypropylcellulose) (HPC)): 98 % of control | T/C (endpoint: mean survival time, dose: 100.0 mg/kg/injection, schedule: Q04DX002 (ip), vehicle: Klucel (hydroxypropylcellulose) (HPC)): 95 % of control

COc1ccc2c(c1)CCCC2=O
T/C [1]: 102 % of control | T/C [2]: 90 % of control | T/C [3]: 94 % of control | T/C [4]: 93 % of control | T/C [5]: 98 % of control

FC(F)(F)c1ccc2c(c1)N(CCCN(CCCl)CCCl)c1ccccc1S2
T/C (endpoint: mean survival time, dose: 18.0 mg/kg/injection, schedule: Q01DX001 (ip), vehicle: saline): 100 % of control | T/C (endpoint: mean survival time, dose: 28.0 mg/kg/injection, schedule: Q01DX001 (ip), vehicle: saline): 111 % of control

Cc1ccc2c(c1)NP(=S)(c1ccccc1)N2 (configuration not stated)
T/C [1]: 91 % of control | T/C [3]: 86 % of control | T/C (endpoint: mean survival time, dose: 400.0 mg/kg/injection, schedule: Q01DX009 (ip), vehicle: saline with Tween-80): 94 % of control

O=c1[nH]c(Cc2ccccc2)c(N=Nc2ccccc2)c(=O)[nH]1
T/C [11]: 90 % of control | T/C [12]: 89 % of control
